From patent publication US20170224688A1, “Methods of Using BTK Inhibitors to Treat Dermatoses” (Acerta Pharma B.V., priority 2016, published 2017)
pEC50: −log10 of the molar value. Each block holds one compound with its values, some of them ahead of it.

Columns and labels:
[1] = test system: signals through the B cell receptor; test: In vitro potency in whole blood: CD69 on CD19+ B cells after anti-human IgD; assay type: cell-based; settings: blood of four healthy donors, 2 h with compound, anti-human IgD 10 μg/mL 18 h, flow cytometry, read-out: EC50, inhibition of CD69 on gated CD19+ B cells in whole blood
Protocol: Blood from four healthy donors was incubated for 2 hours with the compounds shown over a concentration range, and then stimulated with anti-human IgD [10 μg/mL] for 18 hours. The mean fluorescent intensity (MFI) of CD69 (and CD86, data not shown) on gated CD19+ B cells was measured by flow cytometry.

psoriasis [2] = settings: patients treated for malignancies; cited from earlier work
[3] = Preliminary evaluation of metabolism in plasma, bile, and urine; assay type: in vivo; settings: rats, dogs, monkeys; preliminary evaluations
[4] = Glutathione binding and depletion in vitro; assay type: in vitro ADME
CYP3A4 = CYP3A4 (Homo sapiens, UniProt P08684); test: Loss of parent drug as catalyzed by CYPs; assay type: in vitro ADME; settings: in vitro
[5] = test system: BCR activation markers CD69 and CD86; test: In vivo potency: BCR activation markers after oral gavage; settings: mice gavaged, sacrificed 3 h post-dose, BCR stimulated with IgM, flow cytometry (FIG. 1)
Protocol: Mice were gavaged at increasing drug concentration and sacrificed at one time point (3 h post-dose). BCR is stimulated with IgM and the expression of activation markers CD69 and CD86 are monitored by flow cytometry to determine EC50's.
CD86 and CD69 are cell surface proteins that are BCR activation markers. […] BCR was stimulated with IgM and the expression of activation marker CD69 and CD86 are monitored by flow cytometry and to determine EC50 values.

CYP enzymes = test: Nonclinical CYP interaction studies; assay type: in vitro ADME
psoriasis [6] = test: Clinical observation of psoriasis in CLL patients on study drug; assay type: in vivo, human
Text: (§1) Clinical studies have shown that targeting the BCR signaling pathway by inhibiting BTK produces significant clinical benefit in patients with various types of leukemias and lymphomas.
The secondary objective of the clinical study is to evaluate tumor responses in patients treated with Formula (II).
The study scheme is a sequential cohort escalation. Each cohort consists of six subjects. The sample size of the study is 24 to 36 subjects, depending on dose escalation into subsequent cohorts. […] The dose level for Cohort 6 will be determined based on the safety and efficacy of Cohorts 1 to 5, and will not exceed 900 mg/day. Escalation will end with either the MTD cohort or three levels above full BTK occupancy, whichever is observed first. An additional arm of the study will explore 100 mg BID dosing.
The color of the capsules is Swedish orange. The route of administration is oral (per os, or PO). The dose regimen is once daily or twice daily, as defined by the cohort, on an empty stomach (defined as no food 2 hours before and 30 minutes after dosing).
(§2) Subject 1 in the clinical study of Example 12 is a CLL patient with a history of psoriatic skin disease. Subject 1 had psoriasis, without involvement of joints, and with diffuse plaques on their trunk and extremities. Their psoriasis was severe, with ˜30% body surface area (BSA) affected (>10% BSA is considered severe disease). They were treated over time with several systemic therapies including etanercept, adalimumab, and a 2010 clinical study of an experimental agent.
When treatment with Formula (2) was initiated, Subject 1's skin symptoms started to improve rapidly. […] By Cycle 10 (10 months on Formula (2)), their skin was clear. […] The only remainder was some scaling in the same areas that were once affected by psoriasis lesions.
Subject 2 was enrolled in a clinical study similar to that described above, and also experienced resolution of moderate-to-severe plaque psoriasis (a “florid” case) while on treatment with Formula (2). The subject's disease history included extensive body surface area involvement, mainly on the back and thighs, for most of their adult life.

hepatocytes = test: In vitro metabolism in hepatocytes with 14C-labeled drug; assay type: in vitro ADME, mouse, rat, dog, rabbit, monkey, and human
EGFR = EGFR (Homo sapiens, UniProt P00533); test: EGF-induced EGFR phosphorylation in A431 cells (phosphoflow cytometry); settings: at 10 μM, A431 human epidermoid cancer cell line
[7] = Oral bioavailability (preclinical characteristics); settings: in vivo
Text: as §1

[8] = Study of respiratory function (GLP safety pharmacology); settings: rats, doses through 300 mg/kg (highest dose level)
hematologic malignancies = settings: cited from earlier work
psoriasis [9] = test: Treatment history of Subject 1's psoriasis; assay type: in vivo, human; settings: Subject 1, before enrolling in the clinical study
Protocol: as §2

Sequence of EGFR (P00533 25-1210): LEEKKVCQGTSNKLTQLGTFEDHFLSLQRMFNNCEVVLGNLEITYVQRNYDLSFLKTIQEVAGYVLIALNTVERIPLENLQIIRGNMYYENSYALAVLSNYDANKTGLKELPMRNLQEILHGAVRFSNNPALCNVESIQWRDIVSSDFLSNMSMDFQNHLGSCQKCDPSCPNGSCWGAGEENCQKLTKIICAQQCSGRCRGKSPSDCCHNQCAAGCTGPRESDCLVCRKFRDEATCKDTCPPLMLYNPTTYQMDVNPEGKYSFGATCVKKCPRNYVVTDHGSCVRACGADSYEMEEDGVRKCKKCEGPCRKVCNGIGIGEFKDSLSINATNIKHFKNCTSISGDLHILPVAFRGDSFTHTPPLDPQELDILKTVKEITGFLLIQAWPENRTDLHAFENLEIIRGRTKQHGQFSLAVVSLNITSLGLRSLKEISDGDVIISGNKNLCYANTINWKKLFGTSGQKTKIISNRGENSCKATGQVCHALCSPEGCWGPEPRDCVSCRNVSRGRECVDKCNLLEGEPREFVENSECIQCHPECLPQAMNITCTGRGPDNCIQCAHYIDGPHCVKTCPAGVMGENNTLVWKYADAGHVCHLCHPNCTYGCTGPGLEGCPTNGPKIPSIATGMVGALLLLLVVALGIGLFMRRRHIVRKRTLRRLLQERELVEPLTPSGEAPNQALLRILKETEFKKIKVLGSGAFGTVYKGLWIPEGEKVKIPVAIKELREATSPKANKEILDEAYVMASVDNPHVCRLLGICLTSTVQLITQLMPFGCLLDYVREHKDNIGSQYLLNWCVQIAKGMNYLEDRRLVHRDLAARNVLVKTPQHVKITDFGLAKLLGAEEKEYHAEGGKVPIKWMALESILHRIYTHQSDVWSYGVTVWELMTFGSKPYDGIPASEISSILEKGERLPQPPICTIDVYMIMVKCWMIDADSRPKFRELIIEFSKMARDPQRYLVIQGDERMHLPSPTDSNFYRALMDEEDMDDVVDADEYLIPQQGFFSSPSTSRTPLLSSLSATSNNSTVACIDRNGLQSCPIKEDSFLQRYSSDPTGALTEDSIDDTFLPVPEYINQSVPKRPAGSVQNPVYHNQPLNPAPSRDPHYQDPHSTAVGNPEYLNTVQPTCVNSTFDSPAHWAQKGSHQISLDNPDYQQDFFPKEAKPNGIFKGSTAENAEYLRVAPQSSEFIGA
Sequence of CYP3A4 (P08684 whole entry, species assumed): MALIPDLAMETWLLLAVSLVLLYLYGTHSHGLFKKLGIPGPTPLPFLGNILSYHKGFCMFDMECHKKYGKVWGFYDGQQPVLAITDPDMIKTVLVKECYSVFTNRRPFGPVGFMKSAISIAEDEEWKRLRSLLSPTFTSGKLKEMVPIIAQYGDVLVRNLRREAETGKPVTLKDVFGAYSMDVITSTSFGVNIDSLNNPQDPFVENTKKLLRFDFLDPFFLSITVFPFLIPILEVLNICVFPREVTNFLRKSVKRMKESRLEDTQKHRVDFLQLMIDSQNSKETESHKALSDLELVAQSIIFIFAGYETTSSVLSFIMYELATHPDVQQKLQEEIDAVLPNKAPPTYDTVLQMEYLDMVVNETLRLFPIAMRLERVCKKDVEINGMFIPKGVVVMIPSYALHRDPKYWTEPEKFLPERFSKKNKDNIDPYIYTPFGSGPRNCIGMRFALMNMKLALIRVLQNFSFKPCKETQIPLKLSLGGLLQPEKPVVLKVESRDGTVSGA

Compound: C=CC(=O)Nc1cccc(Nc2nc(Nc3ccc(OCCOC)cc3)ncc2F)c1 [CC-292, N-(3-((5-fluoro-2-((4-(2-methoxyethoxy)phenyl)amino)pyrimidin-4-yl)amino)phenyl)acrylamide]
- pEC50 [1]: 6.92

Compound: Cc1nc(Nc2ncc(C(=O)Nc3c(C)cccc3Cl)s2)cc(N2CCN(CCO)CC2)n1 [Dasatinib]
- effect on psoriasis / skin (psoriasis [2]): has not been reported to improve psoriasis

- metabolizing CYP (loss of parent drug) (CYP3A4): metabolized by CYP3A4
- inhibition of in vitro EGFR phosphorylation (EGFR): no inhibition
- oral bioavailability [7]: significant oral bioavailability
Compound: CC#CC(=O)N1CCC[C@H]1c1nc(-c2ccc(C(=O)Nc3ccccn3)cc2)c2c(N)nccn12 [Formula (II), (S)-4-(8-amino-3-(1-(but-2-ynoyl)pyrrolidin-2-yl)imidazo[1,5-a]pyrazin-1-yl)-N-(pyridin-2-yl)benzamide]
- metabolic processes in plasma, bile, and urine [3]: oxidation, glutathione binding, and hydrolysis
- pEC50 [1]: 8.09
- glutathione binding and depletion [4]: binds to glutathione but does not deplete glutathione
- in vivo potency at inhibiting expression of activation markers CD69 and CD86 [5]: more potent at inhibiting expression of activation makers than ibrutinib
- drug-drug interaction potential through CYP enzymes (CYP enzymes): very unlikely to cause clinical drug-drug interactions
- psoriasis skin symptoms, first month of therapy (psoriasis [6]; Subject 1, CLL patient with severe psoriasis (~30% BSA), oral): some improvement
- psoriasis, first 6 months of treatment (psoriasis [6]; Subject 1, oral): mostly resolved
- skin status by Cycle 10 (10 months) (psoriasis [6]; Subject 1, oral): clear
- moderate-to-severe plaque psoriasis after start of treatment (psoriasis [6]; Subject 2, similar clinical study): cleared quickly
- unique human metabolite (hepatocytes; hepatocytes of six species): No unique human metabolite was identified
- metabolites in hepatocytes (hepatocytes; mouse, rat, dog, rabbit, monkey, human hepatocytes, 14C-labeled drug): two mono-oxidized metabolites and a glutathione conjugate
- respiratory function [8]: no treatment-related adverse effects

Compound: C=CC(=O)N1CCC[C@@H](n2nc(-c3ccc(Oc4ccccc4)cc3)c3c(N)ncnc32)C1 [Ibrutinib, 1-[(3R)-3-[4-amino-3-(4-phenoxyphenyl)-1H-pyrazolo[3,4-d]pyrimidin-1-yl]piperidin-1-yl]prop-2-en-1-one]
- pEC50 [1]: 8.21
- antitumor activity (hematologic malignancies; subjects with heavily pretreated non-Hodgkin lymphoma): substantial antitumor activity
- maximum tolerated dose (MTD) (hematologic malignancies; within the tested dose range (through 840 mg)): No maximum tolerated dose (MTD) was apparent

Compound: Cc1ccc(C(=O)Nc2ccc(CN3CCN(C)CC3)c(C(F)(F)F)c2)cc1C#Cc1cnc2cccnn12 [Ponatinib]
- effect on psoriasis / skin (psoriasis [2]): causes an extreme degree of skin drying and induces an almost psoriasis-like disease

Compound: Cc1ccc(NC(=O)c2ccc(CN3CCN(C)CC3)cc2)cc1Nc1nccc(-c2cccnc2)n1 [imatinib]
- effect on psoriasis / skin (psoriasis [2]): may cause worsening of psoriasis

Compound: etanercept
- response of psoriasis to earlier therapy (psoriasis [9]): initially responded
